Test results as given in publication PMC4710522, “A Novel Triazolopyridine-Based Spleen Tyrosine Kinase Inhibitor That Arrests Joint Inflammation” (PLoS ONE, 2016).

Assays:
[1] = biological target: T1, Tel-Syk fusion protein in HEK293 cells (Homo sapiens, UniProt P41212+P43405); assay: Tel-Syk biomarker assay (in-cell western, Syk Y525/526 phosphorylation); type: cell-based
T1 construct: human Syk (NM_003177.5) kinase domain corresponding to amino acids 341–612; myristoylation motif (N); expressed in transfected cells
T1 sequence (P41212+P43405 fused): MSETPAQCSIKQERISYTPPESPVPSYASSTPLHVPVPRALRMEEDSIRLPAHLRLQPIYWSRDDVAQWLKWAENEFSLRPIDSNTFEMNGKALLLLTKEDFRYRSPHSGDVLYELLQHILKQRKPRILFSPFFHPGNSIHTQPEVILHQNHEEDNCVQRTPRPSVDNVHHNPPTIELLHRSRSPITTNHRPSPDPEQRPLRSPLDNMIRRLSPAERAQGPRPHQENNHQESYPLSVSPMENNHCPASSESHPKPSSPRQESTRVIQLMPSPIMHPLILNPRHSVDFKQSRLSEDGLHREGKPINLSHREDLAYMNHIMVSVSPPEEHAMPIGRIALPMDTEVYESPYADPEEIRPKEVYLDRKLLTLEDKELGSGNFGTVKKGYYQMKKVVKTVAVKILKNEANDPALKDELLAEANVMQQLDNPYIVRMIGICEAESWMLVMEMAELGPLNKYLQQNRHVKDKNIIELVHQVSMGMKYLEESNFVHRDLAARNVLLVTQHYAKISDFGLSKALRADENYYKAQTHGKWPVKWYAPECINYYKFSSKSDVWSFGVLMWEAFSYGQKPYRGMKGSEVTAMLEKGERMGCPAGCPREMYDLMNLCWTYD
Protocol: HEK293 T-REx™ (Life Technologies, Grand Island, NY) stably transfected with human TEL-Syk (cloned as described prior section DNA constructs) were plated on black poly-D-lysine coated 96-well plates (BD Biosciences, San Diego, CA) in culture media containing tetracycline-free fetal bovine serum (Clontech, MountainView, CA) for 16 hours in a tissue culture incubator. Tel-Syk expression was induced for 6 hours in fresh growth media containing 1 μg/ml tetracycline (Sigma Chemicals, St. Louis, MO). […] Plates were blocked with Odyssey Blocking Buffer for 90 minutes at room temperature and incubated overnight at 4°C on a rotating platform with rabbit phospho-Syk (1:1000) and mouse V5 (1:2500) primary antibodies diluted in Odyssey Blocking Buffer. The plates were washed 5 times with 1X PBS + 0.1% Tween-20, incubated for 1 hour at room temperature with anti-rabbit IR680 (1:1000) and anti-mouse IR800CW (1:1000) secondary antibodies diluted in Odyssey Blocking Buffer, and washed 5 additional times with 1X PBS + 0.1% Tween-20 at room temperature. The plates were scanned on the Li-Cor Odyssey instrument (Li-Cor Biosciences, Lincoln, NE) in the 700 and 800 channels.
For the TEL-Syk assay, the intensity values for the 700 and 800 channel were exported as text files in ActivityBase (IDBS, Guildford, UK) to derive the ratios that reflect kinase activity. […]

PDE5 = biological target: T2, PDE5 (Homo sapiens, UniProt O76074); assay: non-kinase enzyme panel (CEREP); type: biochemical
T2 construct: purchased CEREP (contract assay)
Protocol: (§1) Syk kinase mode of inhibition studies, including parameters described in Fig 1, were conducted on the LC3000 platform by Caliper Life Sciences (Hopkinton, MA) according to standard protocols developed by the supplier. […] Non-kinase enzyme assays and GPCR, ion channel, and transporter binding assays were run by CEREP (France). Non-GLP manual patch clamp hERG assays were run by ChanTest (Cleveland, Ohio). Vivid® Assay kits (Life Technologies) were used to measure the cytochrome P450 inhibition of the compound against CYP3A, CYP2C9, CYP2C19, CYP2D6, and CYP1A2, as described.

5-lipoxygenase = biological target: T3, 5-lipoxygenase (Homo sapiens, UniProt P09917); assay: non-kinase enzyme panel (CEREP); type: biochemical
T3 construct: CEREP (contract assay)
Protocol: as §1

PDE2A = biological target: T4, PDE2A (Homo sapiens, UniProt O00408); assay: non-kinase enzyme panel (CEREP); type: biochemical
T4 construct: purchased CEREP (contract assay)
Protocol: as §1

PI4K-alpha_h = biological target: T5, PI4K-alpha_h (Homo sapiens, UniProt P42356); assay: SelectScreen kinase assay; type: biochemical; conditions: 10 µM ATP, read-out: % control
T5 construct: purchased Life Technologies (Invitrogen) SelectScreen, Z'-LYTE / Adapta
Protocol: as §1
(§2) Kinase activity was measured using either the Z’-Lyte® or the Adapta® protocols as part of the SelectScreen™ profiling service offered at Life Technologies (Grand Island, NY). For the single point measurements (Part A), CC-509 was kept constant at 3 µM while ATP concentrations [ATP] used were at the KM for ATP (KM ATP) for that specific enyzme, at 10 or 100 µM ATP (10 ATP or 100 ATP, respectively), as indicated. Values expressed as percent control (% control) relative to DMSO-only wells (uninhibited, 100%).

SPHK2_h = biological target: T6, SPHK2_h (Homo sapiens, UniProt Q9NRA0); assay: SelectScreen kinase assay; type: biochemical; conditions: 10 µM ATP, read-out: % control
T6 construct: purchased Life Technologies (Invitrogen) SelectScreen, Z'-LYTE / Adapta
Protocol: as §1, §2

PI4K-beta_h = biological target: T7, PI4K-beta_h (Homo sapiens, UniProt Q9UBF8); assay: SelectScreen kinase assay; type: biochemical; conditions: KM ATP, read-out: % control
T7 construct: purchased Life Technologies (Invitrogen) SelectScreen, Z'-LYTE / Adapta
Protocol: as §1, §2

EphA3_h = biological target: T8, EphA3_h (Homo sapiens, UniProt P29320); assay: SelectScreen kinase assay; type: biochemical; conditions: KM ATP, read-out: % control
T8 construct: purchased Life Technologies (Invitrogen) SelectScreen, Z'-LYTE / Adapta
Protocol: as §1, §2

PI3K-C2 beta_h = biological target: T9, PI3K-C2 beta_h (Homo sapiens, UniProt O00750); assay: SelectScreen kinase assay; type: biochemical; conditions: 10 µM ATP, read-out: % control
T9 construct: purchased Life Technologies (Invitrogen) SelectScreen, Z'-LYTE / Adapta
T9 sequence (O00750 whole entry): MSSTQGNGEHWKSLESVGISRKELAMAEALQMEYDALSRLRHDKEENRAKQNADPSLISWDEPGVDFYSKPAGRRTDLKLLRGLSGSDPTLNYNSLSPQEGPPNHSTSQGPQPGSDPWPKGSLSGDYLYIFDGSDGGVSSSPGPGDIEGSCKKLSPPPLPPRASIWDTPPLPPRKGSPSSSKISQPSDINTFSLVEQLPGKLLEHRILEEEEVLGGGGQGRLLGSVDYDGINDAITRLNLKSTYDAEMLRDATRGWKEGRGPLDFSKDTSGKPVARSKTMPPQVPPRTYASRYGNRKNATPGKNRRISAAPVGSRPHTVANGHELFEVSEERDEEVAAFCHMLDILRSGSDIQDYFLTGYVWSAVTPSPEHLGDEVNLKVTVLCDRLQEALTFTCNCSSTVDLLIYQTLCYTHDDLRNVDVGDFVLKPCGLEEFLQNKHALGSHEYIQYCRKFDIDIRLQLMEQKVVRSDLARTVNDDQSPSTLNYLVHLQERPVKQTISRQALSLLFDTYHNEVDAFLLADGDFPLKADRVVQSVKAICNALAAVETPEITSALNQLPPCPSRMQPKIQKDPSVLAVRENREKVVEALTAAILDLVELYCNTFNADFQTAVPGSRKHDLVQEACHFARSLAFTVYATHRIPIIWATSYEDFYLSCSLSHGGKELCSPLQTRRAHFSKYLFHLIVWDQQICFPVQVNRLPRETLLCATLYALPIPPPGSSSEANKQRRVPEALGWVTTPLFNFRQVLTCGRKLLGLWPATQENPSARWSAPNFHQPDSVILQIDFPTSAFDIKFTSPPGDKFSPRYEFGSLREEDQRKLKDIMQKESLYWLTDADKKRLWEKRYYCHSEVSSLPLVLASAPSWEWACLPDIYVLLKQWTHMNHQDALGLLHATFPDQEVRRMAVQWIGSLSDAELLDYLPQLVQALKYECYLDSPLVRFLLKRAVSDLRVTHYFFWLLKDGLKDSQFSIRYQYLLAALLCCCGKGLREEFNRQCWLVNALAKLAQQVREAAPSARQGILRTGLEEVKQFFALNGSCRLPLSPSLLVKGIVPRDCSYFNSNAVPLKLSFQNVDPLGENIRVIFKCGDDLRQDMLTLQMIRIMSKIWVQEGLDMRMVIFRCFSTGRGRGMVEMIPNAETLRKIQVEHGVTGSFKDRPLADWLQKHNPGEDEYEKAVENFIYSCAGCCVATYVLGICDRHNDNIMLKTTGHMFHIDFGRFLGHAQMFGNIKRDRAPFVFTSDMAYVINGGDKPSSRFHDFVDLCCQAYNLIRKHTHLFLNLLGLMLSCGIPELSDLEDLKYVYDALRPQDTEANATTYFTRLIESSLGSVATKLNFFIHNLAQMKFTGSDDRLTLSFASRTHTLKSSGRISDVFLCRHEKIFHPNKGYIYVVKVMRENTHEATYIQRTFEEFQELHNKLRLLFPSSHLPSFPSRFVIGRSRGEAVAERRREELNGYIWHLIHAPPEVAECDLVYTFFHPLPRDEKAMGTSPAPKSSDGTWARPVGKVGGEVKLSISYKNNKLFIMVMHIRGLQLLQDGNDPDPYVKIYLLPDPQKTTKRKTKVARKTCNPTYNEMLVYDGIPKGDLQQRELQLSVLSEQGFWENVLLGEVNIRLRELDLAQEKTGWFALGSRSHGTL
Protocol: as §1, §2

PIK3C3_h = biological target: T10, PIK3C3_h (Homo sapiens, UniProt Q8NEB9); assay: SelectScreen kinase assay; type: biochemical; conditions: KM ATP, read-out: % control
T10 construct: purchased Life Technologies (Invitrogen) SelectScreen, Z'-LYTE / Adapta
Protocol: as §1, §2

PI3K-C2 alpha_h = biological target: T11, PI3K-C2 alpha_h (Homo sapiens, UniProt O00443); assay: SelectScreen kinase assay; type: biochemical; conditions: KM ATP, read-out: % control
T11 construct: purchased Life Technologies (Invitrogen) SelectScreen, Z'-LYTE / Adapta
Protocol: as §1, §2

PI3_Kinase-delta_h = biological target: T12, PI3_Kinase-delta_h (Homo sapiens, UniProt O00329); assay: SelectScreen kinase assay; type: biochemical; conditions: KM ATP, read-out: % control
T12 construct: purchased Life Technologies (Invitrogen) SelectScreen, Z'-LYTE / Adapta
Protocol: as §1, §2

SPHK1_h = biological target: T13, SPHK1_h (Homo sapiens, UniProt Q9NYA1); assay: SelectScreen kinase assay; type: biochemical; conditions: KM ATP, read-out: % control
T13 construct: purchased Life Technologies (Invitrogen) SelectScreen, Z'-LYTE / Adapta
T13 sequence (Q9NYA1 whole entry): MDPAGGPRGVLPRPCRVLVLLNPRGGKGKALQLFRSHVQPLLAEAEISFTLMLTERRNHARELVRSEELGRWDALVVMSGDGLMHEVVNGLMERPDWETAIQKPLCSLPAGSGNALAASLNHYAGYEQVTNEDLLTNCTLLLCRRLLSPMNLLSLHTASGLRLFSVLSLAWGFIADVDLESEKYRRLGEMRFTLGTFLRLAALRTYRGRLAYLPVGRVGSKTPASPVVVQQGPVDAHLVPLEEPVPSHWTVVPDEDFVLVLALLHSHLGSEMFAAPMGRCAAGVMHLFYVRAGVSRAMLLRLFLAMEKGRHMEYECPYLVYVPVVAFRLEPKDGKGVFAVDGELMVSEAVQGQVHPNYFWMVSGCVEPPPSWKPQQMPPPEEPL
Protocol: as §1, §2

[2] = tested on: rat passive cutaneous anaphylaxis model; assay: rat passive cutaneous anaphylaxis (PCA) model; type: in vivo
Protocol: On day 0, male CD-IGS rats (170 – 190g; Charles River Laboratories) were anesthetized with isofluorane, their dorsal region shaved and 50 μl Anti-DNP-IgE (Clone SPE-7, Sigma, St. Louis, MO) that had been diluted 1:1000 in saline was injected via the intradermal route at 3 individual spots along the right side of the back. Saline was injected via the intradermal route at 3 individual spots along the left side of the back as a sham control. Twenty-four hours later, 200 μl of BSA-DNP (Calbiochem, San Diego, CA), prepared (1 mg prepared in a 2% solution of Evans blue dye: Sigma Chemicals, St. Louis, MO) was injected via the IV route via the tail vein. Thirty minutes after the BSA-DNP challenge the experiment was terminated and skin samples from the middle of each injection site taken for Evans blue dye measurement at an OD measurement at 620nm on a plate reader following incubation (2h at 90°C) and homogenization in formamide (Sigma Chemicals, St. Louis, MO). Vehicle (20% Captisol® (Captisol), PO), the positive control (Cromolyn: Sigma Chemicals, St. Louis, MO 100mg/kg, 2mL/kg, IV) or CC0484509 (3 and 10mg/kg, PO) were dosed 1h prior to the IV challenge with BSA-DNP.
For the TEL-Syk assay, the intensity values for the 700 and 800 channel were exported as text files in ActivityBase (IDBS, Guildford, UK) to derive the ratios that reflect kinase activity. For LAD2 experiments, enzyme activity values were exported as text files into ActivityBase to calculate “percent release” according to the formula: 100* supernatant OD405/ (supernatant OD405 + (pellet OD405*pellet dilution factor)). For the basophil and B-cells assays, flow cytometry data was exported from the FACS Array and processed using FloJo software package (TreeStar, Inc., Ashland, Oregon). For the JAK2 HEL and Ramos NFAT β-lactamase assays, the fluorescence values obtained at 460 nm and 530 nm were exported into ActivityBase to calculate response ratios. For the neutrophil, macrophage, KDR, and JAK1/3 assays, raw values were exported into ActivityBase to calculate percent inhibition. All IC50 calculations were generated using XLfit (IDBS, Guildford, UK) algorithm 205 within Excel. For PCA, the OD from the saline injected site was subtracted from the OD from the anti-DNP IgE injected site. Evans blue dye extravasation was expressed as mean ± SEM and % inhibition for the test article groups was normalized to the cromolyn positive control. For the CIA model paw measurements (left and right ankle diameter) were taken for each individual animal and averaged. The mean data from each group was plotted and either the AUC(day 11–18) or % inhibition on day 18 was calculated. Data is expressed as mean ± SEM of each group with n = 6–12. […]

LRRK2 G2019S_h = biological target: T14, LRRK2 G2019S_h (Homo sapiens, UniProt Q5S007, G2019S); assay: SelectScreen kinase assay; type: biochemical; conditions: KM ATP, read-out: % control
T14 construct: purchased Life Technologies (Invitrogen) SelectScreen, Z'-LYTE / Adapta
T14 sequence (Q5S007 whole entry G2019S): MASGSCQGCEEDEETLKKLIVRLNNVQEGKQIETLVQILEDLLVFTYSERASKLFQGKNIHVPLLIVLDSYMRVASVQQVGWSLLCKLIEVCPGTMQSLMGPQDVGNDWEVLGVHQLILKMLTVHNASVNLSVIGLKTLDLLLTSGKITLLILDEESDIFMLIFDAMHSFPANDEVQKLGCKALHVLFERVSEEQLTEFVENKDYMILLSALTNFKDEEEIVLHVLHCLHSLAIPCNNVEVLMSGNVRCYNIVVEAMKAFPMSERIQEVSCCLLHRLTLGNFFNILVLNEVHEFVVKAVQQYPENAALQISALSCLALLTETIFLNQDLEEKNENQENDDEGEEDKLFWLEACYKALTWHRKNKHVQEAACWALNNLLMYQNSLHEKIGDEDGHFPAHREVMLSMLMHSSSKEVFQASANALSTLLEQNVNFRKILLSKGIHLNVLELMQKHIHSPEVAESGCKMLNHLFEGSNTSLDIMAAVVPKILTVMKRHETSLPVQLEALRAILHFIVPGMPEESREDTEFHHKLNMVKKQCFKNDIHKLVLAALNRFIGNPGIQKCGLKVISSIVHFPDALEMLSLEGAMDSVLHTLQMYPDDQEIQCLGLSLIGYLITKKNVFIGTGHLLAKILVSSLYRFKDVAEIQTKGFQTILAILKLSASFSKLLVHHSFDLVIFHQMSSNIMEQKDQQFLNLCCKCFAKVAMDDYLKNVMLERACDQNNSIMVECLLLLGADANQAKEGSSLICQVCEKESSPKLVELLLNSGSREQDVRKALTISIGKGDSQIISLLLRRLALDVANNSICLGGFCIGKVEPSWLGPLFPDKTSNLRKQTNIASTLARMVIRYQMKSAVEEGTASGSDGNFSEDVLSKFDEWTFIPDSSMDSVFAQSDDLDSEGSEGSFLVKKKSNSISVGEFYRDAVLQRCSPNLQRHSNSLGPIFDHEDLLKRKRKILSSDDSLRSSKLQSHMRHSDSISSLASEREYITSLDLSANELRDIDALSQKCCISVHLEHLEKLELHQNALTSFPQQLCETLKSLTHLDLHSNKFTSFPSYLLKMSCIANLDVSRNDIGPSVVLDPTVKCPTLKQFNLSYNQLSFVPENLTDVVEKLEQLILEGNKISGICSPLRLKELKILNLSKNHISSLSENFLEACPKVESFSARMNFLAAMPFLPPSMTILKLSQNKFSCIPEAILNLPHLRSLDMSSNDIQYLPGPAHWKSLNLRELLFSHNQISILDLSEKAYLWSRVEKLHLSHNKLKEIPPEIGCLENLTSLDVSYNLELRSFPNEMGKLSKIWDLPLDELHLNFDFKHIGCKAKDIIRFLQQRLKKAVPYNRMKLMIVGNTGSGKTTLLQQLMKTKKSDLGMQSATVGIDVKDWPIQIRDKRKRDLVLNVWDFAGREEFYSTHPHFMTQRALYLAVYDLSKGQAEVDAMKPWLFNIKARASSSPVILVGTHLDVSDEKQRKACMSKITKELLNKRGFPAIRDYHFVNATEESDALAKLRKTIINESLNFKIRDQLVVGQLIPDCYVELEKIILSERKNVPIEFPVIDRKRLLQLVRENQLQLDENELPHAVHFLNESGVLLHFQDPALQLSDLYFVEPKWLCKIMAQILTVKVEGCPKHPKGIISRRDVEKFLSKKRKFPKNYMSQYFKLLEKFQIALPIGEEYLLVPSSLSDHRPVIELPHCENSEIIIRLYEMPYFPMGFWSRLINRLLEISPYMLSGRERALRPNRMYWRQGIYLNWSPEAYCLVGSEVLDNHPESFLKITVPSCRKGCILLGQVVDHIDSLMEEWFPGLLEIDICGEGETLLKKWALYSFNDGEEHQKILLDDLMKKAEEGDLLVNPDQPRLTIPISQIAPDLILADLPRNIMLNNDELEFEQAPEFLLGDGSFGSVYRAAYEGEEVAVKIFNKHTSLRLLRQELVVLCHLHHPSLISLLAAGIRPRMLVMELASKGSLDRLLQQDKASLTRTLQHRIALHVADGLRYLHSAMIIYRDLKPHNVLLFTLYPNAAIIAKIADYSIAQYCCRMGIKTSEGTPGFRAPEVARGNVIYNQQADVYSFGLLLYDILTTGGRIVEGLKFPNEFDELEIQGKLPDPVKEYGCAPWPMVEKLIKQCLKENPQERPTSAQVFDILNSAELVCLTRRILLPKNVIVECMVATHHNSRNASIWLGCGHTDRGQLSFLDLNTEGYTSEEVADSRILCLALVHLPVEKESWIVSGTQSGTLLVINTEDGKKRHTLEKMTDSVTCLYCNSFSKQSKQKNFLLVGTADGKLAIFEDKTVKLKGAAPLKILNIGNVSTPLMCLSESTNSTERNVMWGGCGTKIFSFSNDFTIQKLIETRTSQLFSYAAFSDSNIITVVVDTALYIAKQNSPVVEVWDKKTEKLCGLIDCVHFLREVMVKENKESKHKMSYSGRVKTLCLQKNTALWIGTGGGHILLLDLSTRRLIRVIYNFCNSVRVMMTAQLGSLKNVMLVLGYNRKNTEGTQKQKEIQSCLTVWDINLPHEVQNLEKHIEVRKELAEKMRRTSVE

cSRC_h = biological target: T15, cSRC_h (Homo sapiens, UniProt P12931); assay: SelectScreen kinase assay; type: biochemical; conditions: KM ATP, read-out: % control
T15 construct: purchased Life Technologies (Invitrogen) SelectScreen, Z'-LYTE / Adapta

SMILES: c1cc(CC2CCOCC2)n2nc(Nc3ccc4c(NC5CCOCC5)n[nH]c4c3)nc2c1 [CC-509, [3-(2H-3,4,5,6-tetrahydropyran-4-ylamino)(1H-indazol-6-yl)][5-(2H-3,4,5,6-tetrahydropyran-4-ylmethyl)(2H-1,2,4-triazolo[1,5-a]pyridin-2-yl)]amine]
- IC50 [1]: 610 ± 190 nM
- inhibition at 10 µM (PDE5): 90%
- inhibition at 10 µM (5-lipoxygenase): 73%
- inhibition at 10 µM (PDE2A): 89%
- remaining activity at 3 µM (PI4K-alpha_h): 120%
- remaining activity at 3 µM (SPHK2_h): 105%
- remaining activity at 3 µM (PI4K-beta_h): 77%
- remaining activity at 3 µM (EphA3_h): 98%
- remaining activity at 3 µM (PI3K-C2 beta_h): 98%
- remaining activity at 3 µM (PIK3C3_h): 79%
- remaining activity at 3 µM (PI3K-C2 alpha_h): 95%
- remaining activity at 3 µM (PI3_Kinase-delta_h): 58%
- remaining activity at 3 µM (SPHK1_h): 96%
- inhibition of skin edema, normalized to cromolyn ([2]; 3 mg/kg PO, not statistically significant): 26%
- inhibition of skin edema, normalized to cromolyn ([2]; 10 mg/kg PO, p<0.01): 81%
- ED50 ([2]; Rattus norvegicus, PCA model, dye extravasation): ~5 mg/kg
- remaining activity at 3 µM (LRRK2 G2019S_h): 4%
- remaining activity at 3 µM (cSRC_h): 67%
